Experimental data published in patent US20090239926A1, “METHODS FOR THE TREATMENT OF PSORIASIS OR PSORIATIC ARTHRITIS USING CYCLOPROPYL-N-CARBOXAMIDE” (priority 2008, published 2009).
Several values for one entry are separate records, joined by “and”; a condition that tells them apart may be missing. Equal values may be shown once.

Assays:
[1] = test system: mAB/LPS-induced experimental arthritis in male BALB/c mice; assay: mAb/LPS-induced mice arthritis model; type: in vivo
Protocol: Treatment Regimen: Compound A was administered by oral gavage (PO), using a suitable stainless steel feeding needle. Enbrel (Reference Item) was administrated by intraperitoneal (IP) injections. Compound A was first administered on study Day 3 (one hour prior to the single LPS injection) and thereafter on Days 4, 5, 6, 7, 8, 9, 10, 11, 12 and 13 (total of 11 successive treatment days) at 1, 5 and 25 mg/kg once daily. Compound A treated groups comprised n=8 BALB/c male mice per dosing group. In addition, two equally sized groups were treated with either Enbrel (5 mg/kg/day, Reference Item), or a solution of 0.5% Na CMC/0.25% Tween 80 (PO, 5 ml/kg, Vehicle Control).
Arthritis Reactions: Both hind paws (left and right) of each animal were examined for signs of arthritogenic responses prior to arthritis induction (Day 0) and thereafter on study days 4, 5, 6, 7, 9, 11 & 14 as selected by the Sponsor. Arthritis reactions were scored and recorded according to a 0-4 scale in ascending order of severity (based on Morwell MD Biosciences Inc. brochure) as shown in Table 1.
Measurements of Experimental Arthritis: Hind paw thickness was determined on eight days using a Mitutoyo Electronic Digital Caliper (on Days 0, 4, 5, 6, 7, 9, 11 and 14) and presented as mean group values of the average for both left and right hind paws.

spontaneous behavior = assay: Spontaneous behavior (LABORAS) in non-arthritic mice; type: in vivo; settings: 25 mg/kg/day
Protocol: Behavioral studies: The effect of Compound A (25 mg/kg/day) on spontaneous behavior was assessed using the LABORAS (Laboratory Animal Behavior Observation Registration and Analysis System), which is an automated system that detects vibrations evoked by movement of a single rodent in a cage. Pattern recognition software then recognizes and quantifies behaviors, including grooming, activity, climbing, immobility, and feeding.

[2] = test system: LPS-stimulated human PBMC TNF-α production; assay: LPS-induced TNF-α production in human PBMC; type: cell-based; settings: LPS 100 ng/ml, 18-20 hours
Protocol: LPS-induced TNF-α production in Human PBMC: Human peripheral blood mononuclear cells (PBMC) (2×10^5 cells) were plated in 96-well flat-bottom Costar tissue culture plates (Corning, N.Y., USA) in triplicate. Compound A was dissolved in DMSO (Sigma) and further dilutions were done in culture medium immediately before use. The final DMSO concentration in all samples was 0.25%. Various concentration of Compound A was added to cells one hour before stimulation. Cells were stimulated with LPS (Sigma, St. Louis, Mo., USA) at 100 ng/ml, in the absence or presence of Compound A. Cells were incubated for 18-20 hours at 37 in 5% CO2 and supernatants were then collected, diluted with culture medium and assayed for TNF-α levels by ELISA (Endogen, Boston, Mass., USA) (Muller, G. W., et al., J Med Chem, 1996. 39(17): 3238-40).

[3] = test system: LPS-induced serum TNF-α in female BALB/c mice; assay: Mouse LPS-induced serum TNF-α production; type: in vivo; settings: po
Protocol: Mouse LPS-induced serum TNF-α production: Compound A was administered to female BALB/c mice orally by gavage two hours prior to LPS challenge. Blood was drawn 1.5 hours after LPS challenge, and serum TNF-α was measured as described above.

human PDE2 = human PDE2 (Homo sapiens, UniProt O00408); assay: Specificity: PDE2; type: biochemical
Sequence of human PDE2 (O00408 whole entry): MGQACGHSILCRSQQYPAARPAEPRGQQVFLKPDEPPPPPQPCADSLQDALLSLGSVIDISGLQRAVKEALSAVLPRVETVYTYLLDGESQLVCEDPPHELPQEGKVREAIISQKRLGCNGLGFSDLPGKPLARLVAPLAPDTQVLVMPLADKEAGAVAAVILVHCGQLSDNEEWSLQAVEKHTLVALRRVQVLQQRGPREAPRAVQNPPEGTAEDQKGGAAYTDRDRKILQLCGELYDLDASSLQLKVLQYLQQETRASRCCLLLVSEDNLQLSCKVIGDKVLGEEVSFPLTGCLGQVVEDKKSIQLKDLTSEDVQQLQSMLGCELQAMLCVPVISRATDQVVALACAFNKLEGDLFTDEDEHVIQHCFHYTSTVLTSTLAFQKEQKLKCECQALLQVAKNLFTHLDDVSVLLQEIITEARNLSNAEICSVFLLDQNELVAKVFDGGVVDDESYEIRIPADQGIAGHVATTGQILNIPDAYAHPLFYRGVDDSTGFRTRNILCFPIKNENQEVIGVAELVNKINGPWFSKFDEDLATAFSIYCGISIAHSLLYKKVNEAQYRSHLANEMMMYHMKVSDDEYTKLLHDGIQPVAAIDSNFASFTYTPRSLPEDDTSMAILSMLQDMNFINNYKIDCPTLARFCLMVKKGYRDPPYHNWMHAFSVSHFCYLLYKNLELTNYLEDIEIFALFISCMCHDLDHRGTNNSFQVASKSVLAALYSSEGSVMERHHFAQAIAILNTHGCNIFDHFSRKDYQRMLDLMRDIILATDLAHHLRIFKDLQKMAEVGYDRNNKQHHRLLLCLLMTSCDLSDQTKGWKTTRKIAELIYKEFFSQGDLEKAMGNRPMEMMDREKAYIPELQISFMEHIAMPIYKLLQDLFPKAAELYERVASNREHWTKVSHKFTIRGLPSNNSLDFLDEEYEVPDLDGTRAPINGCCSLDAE
Protocol: The specificity of Compound A for PDE4 was assessed by testing at a single concentration (10 μM) against bovine PDE1, human PDE2, PDE3 and PDE5 from human platelets, and PDE6 from bovine retinal rod outer segments.

[4] = test system: IL-5 production by human CD4+ T cells; assay: IL-5 production by CD4+ T cells; type: cell-based; settings: CD4+ T cell, stimulated with CD3 antibody OKT3 and CD28 antibody CD28.2
Protocol: CD4^+ T cells were purified from human leukocytes obtained from the Blood Center of New Jersey (East Orange, N.J.) by negative selection (Schafer, P. H., et al., J Immunol, 1999. 162(12): 7110-9). CD4^+ T cells were stimulated with CD3 antibody OKT3 (purified from OKT3 hybridoma supernatant) and CD28 antibody CD28.2 (BD Pharmingen) (Hatzelmann, A. and C. Schudt, J Pharmacol Exp Ther, 2001. 297(1): 267-79). IL-5 was measured by ELISA (R&D Systems).

[5] = Compound A 1 mg/kg/day PO, Day 0 (prior to arthritis induction)
[6] = Compound A 1 mg/kg/day PO, Day 4
[7] = Compound A 1 mg/kg/day PO, Day 5
[8] = Compound A 1 mg/kg/day PO, Day 6
[9] = Compound A 1 mg/kg/day PO, Day 7
[10] = Compound A 1 mg/kg/day PO, Day 9
[11] = Compound A 1 mg/kg/day PO, Day 11
[12] = Compound A 1 mg/kg/day PO, Day 14
[13] = Compound A 5 mg/kg/day PO, Day 0 (prior to arthritis induction)
[14] = Compound A 5 mg/kg/day PO, Day 4
[15] = Compound A 5 mg/kg/day PO, Day 5
[16] = Compound A 5 mg/kg/day PO, Day 6
[17] = Compound A 5 mg/kg/day PO, Day 7
[18] = Compound A 5 mg/kg/day PO, Day 9
[19] = Compound A 5 mg/kg/day PO, Day 11
[20] = Compound A 5 mg/kg/day PO, Day 14
[21] = Compound A 25 mg/kg/day PO, Day 0 (prior to arthritis induction)
[22] = Compound A 25 mg/kg/day PO, Day 4
[23] = Compound A 25 mg/kg/day PO, Day 5
[24] = Compound A 25 mg/kg/day PO, Day 6
[25] = Compound A 25 mg/kg/day PO, Day 7

`CCOc1cc([C@@H](CS(C)(=O)=O)N2Cc3cccc(NC(=O)C4CC4)c3C2=O)ccc1OC` [Compound A, cyclopropyl-N-{2-[(1S)-1-(3-ethoxy-4-methoxyphenyl)-2-(methylsulfonyl)ethyl]-3-oxoisoindoline-4-yl}carboxamide] was tested, and the “Arthritis Scoring, mean of both hind paws (0-4 scale)” value (from here on “Arthritis Scoring, mean”) [1, 5] was 0, the “Hind Paws Thickness, group mean” value [1, 5] was 2.2 mm and the “Arthritis Scoring, mean” value [1, 6] was 0. For the same compound, the “Hind Paws Thickness, group mean” value [1, 6] was 2.2 mm, the “Percentage Change in Hind Paw Thickness vs. Study Commencement (Day 0), group mean” value (shortened to “Percentage Change”) [1, 6] was 1% and the “Arthritis Scoring, mean” value [1, 7] was 1. The “Hind Paws Thickness, group mean” value [1, 7] was 2.4 mm, the “Percentage Change” value [1, 7] was 8% and the “Arthritis Scoring, mean” value [1, 8] was 2. For the same compound, the “Hind Paws Thickness, group mean” value [1, 8] was 2.7 mm, the “Percentage Change” value [1, 8] was 24% and the “Arthritis Scoring, mean” value [1, 9] was 2. The “Hind Paws Thickness, group mean” value [1, 9] was 2.8 mm, the “Percentage Change” value [1, 9] was 27% and the “Arthritis Scoring, mean” value [1, 10] was 2. The “Hind Paws Thickness, group mean” value [1, 10] was 2.7 mm, the “Percentage Change” value [1, 10] was 23% and the “Arthritis Scoring, mean” value [1, 11] was 1. For the same compound, the “Percentage Change” value [1, 11] was 13%, the “Arthritis Scoring, mean” value [1, 12] was 1 and the “Hind Paws Thickness, group mean” value [1, 12] was 2.4 mm. The “Percentage Change” value [1, 12] was 7%, the “Arthritis Scoring, mean” value [1, 13] was 0 and the “Hind Paws Thickness, group mean” value [1, 13] was 2.2 mm. The “Arthritis Scoring, mean” value [1, 14] was 0, the “Hind Paws Thickness, group mean” value [1, 14] was 2.2 mm and the “Percentage Change” value [1, 14] was 1%. The “Arthritis Scoring, mean” value [1, 15] was 1, the “Hind Paws Thickness, group mean” value [1, 15] was 2.5 mm and the “Percentage Change” value [1, 15] was 12%. For the same compound, the “Arthritis Scoring, mean” value [1, 16] was 2, the “Hind Paws Thickness, group mean” value [1, 16] was 2.8 mm and the “Percentage Change” value [1, 16] was 30%. The “Arthritis Scoring, mean” value [1, 17] was 2, the “Hind Paws Thickness, group mean” value [1, 17] was 2.8 mm and the “Percentage Change” value [1, 17] was 30%. For the same compound, the “Arthritis Scoring, mean” value [1, 18] was 2, the “Hind Paws Thickness, group mean” value [1, 18] was 2.7 mm and the “Percentage Change” value [1, 18] was 21%. For the same compound, the “Arthritis Scoring, mean” value [1, 19] was 1, the “Percentage Change” value [1, 19] was 15% and the “Arthritis Scoring, mean” value [1, 20] was 1. For the same compound, the “Hind Paws Thickness, group mean” value [1, 20] was 2.5 mm, the “Percentage Change” value [1, 20] was 13% and the “Arthritis Scoring, mean” value [1, 21] was 0. The “Hind Paws Thickness, group mean” value [1, 21] was 2.2 mm, the “Arthritis Scoring, mean” value [1, 22] was 0 and the “Hind Paws Thickness, group mean” value [1, 22] was 2.2 mm. The “Percentage Change” value [1, 22] was 0%, the “Arthritis Scoring, mean” value [1, 23] was 1 and the “Hind Paws Thickness, group mean” value [1, 23] was 2.4 mm. The “Percentage Change” value [1, 23] was 8%, the “Arthritis Scoring, mean” value [1, 24] was 2 and the “Hind Paws Thickness, group mean” value [1, 24] was 2.7 mm. The “Percentage Change” value [1, 24] was 21%, the “Arthritis Scoring, mean” value [1, 25] was 2 and the “Hind Paws Thickness, group mean” value [1, 25] was 2.7 mm. For the same compound, the “Percentage Change” value [1, 25] was 21%, the “Arthritis Scoring, mean” value ([1]; Compound A 25 mg/kg/day PO, Day 11) was 1 and the effect on climbing (spontaneous behavior) was “little or no effect”. The effect on grooming (spontaneous behavior) was “little or no effect”, the effect on locomotion (spontaneous behavior) was “only a modest reduction” and the “effect on time spent immobile” value (spontaneous behavior) was “little or no effect”. The IC50 [2] was 51 nM and 0.024 µg/mL, the inhibition at 0.1 mg/kg ([3]; 2 h, 0.1 mg/kg p.o., two hours prior to LPS, n=2, read-out: inhibition of mouse LPS-induced serum TNF-α levels) was 3% and the inhibition at 1 mg/kg ([3]; 2 h, 1 mg/kg p.o., two hours prior to LPS, n=2, read-out: inhibition of mouse LPS-induced serum TNF-α levels) was 83%. For the same compound, the ED50 ([3]; read-out: Mouse LPS-induced serum TNF-α inhibition ED50) was 0.1 to 1 mg/kg, the inhibition at 10 µM (human PDE2) was -14% and the IC50 [4] was 520 nM and 0.25 µg/mL.
